# Assay results: patent US20140205654A1, “LIPOSOMAL VANCOMYCIN FOR THE TREATMENT OF MRSA INFECTIONS” (CEDARS-SINAI MEDICAL CENTER, priority 2011, published 2014)
# Experiments:
# Type in all cases: cell-based
# MRSA 78 = experiment: MIC by broth dilution; conditions: Staphylococcus aureus, 24 h, read-out: Vancomycin MIC
# Description: (§1) The MICs of free and liposomal antibiotics for all strains were determined by the broth dilution technique. Briefly, serial dilutions of free- or liposome-encapsulated antibiotic from 20 to 0.3 μg/ml were prepared. For bacterial suspensions, frozen stocks of MRSA were streaked on sheep blood agar plates. Single colonies were inoculated into fresh media and shaken for 20 hr at 37° C. The overnight bacteria were diluted and added to 96-well plates (Becton Dickinson) to achieve an approximate concentration of 1×10^5. The inocula were confirmed by plating on agar. The 96-well plates were then incubated with or without shaking at 37° C., and the lowest concentration of antibiotic formulations that inhibited visible growth of bacteria was determined after 24 hours (MIC). Incubation of the plates with shaking (at 200 rpm) increased the consistency of MIC measurement for the liposomal preparations. For determination of MBC, the broths used for MIC determination were plated on agar, and the first dilution at which 99.9% of the original inocula were killed was identified. All MIC and MBC assays were performed at least three times.
# MRSA 79 = experiment: MIC by broth dilution; conditions: Staphylococcus aureus, 24 h, read-out: Vancomycin MIC
# Description: as §1
# MRSA 80 = experiment: MIC by broth dilution; conditions: Staphylococcus aureus, 24 h, read-out: Vancomycin MIC
# Description: as §1
# MRSA 81 = experiment: MIC by broth dilution; conditions: Staphylococcus aureus, 24 h, read-out: Vancomycin MIC
# Description: as §1
# MRSA 82 = experiment: MIC by broth dilution; conditions: Staphylococcus aureus, 24 h, read-out: Vancomycin MIC
# Description: as §1
# MRSA 83 = experiment: MIC by broth dilution; conditions: Staphylococcus aureus, 24 h, read-out: Vancomycin MIC
# Description: as §1
# MRSA strain ATCC 43300 = experiment: MIC by broth dilution; conditions: Staphylococcus aureus, 24 h, read-out: Vancomycin MIC
# Description: as §1
# MRSA strain LAC [1] = experiment: MIC by broth dilution; conditions: Staphylococcus aureus, 24 h, read-out: Vancomycin MIC
# Description: as §1
# MRSA strain NRS-35 [2] = experiment: MIC by broth dilution; conditions: Staphylococcus aureus, 24 h, read-out: Vancomycin MIC
# Description: as §1
# MRSA strain LAC [3] = experiment: MBC determination; conditions: Staphylococcus aureus, read-out: Vancomycin MBC
# Description: as §1
# MRSA strain NRS-35 [4] = experiment: MBC determination; conditions: Staphylococcus aureus, read-out: Vancomycin MBC
# Description: as §1
structure (smiles),measurement,setting,value
"CN[C@H](CC(C)C)C(=O)N[C@H]1C(=O)N[C@@H](CC(N)=O)C(=O)N[C@H]2C(=O)N[C@H]3C(=O)N[C@H](C(=O)N[C@H](C(=O)O)c4cc(O)cc(O)c4-c4cc3ccc4O)[C@H](O)c3ccc(c(Cl)c3)Oc3cc2cc(c3O[C@@H]2O[C@H](CO)[C@@H](O)[C@H](O)[C@H]2O[C@H]2C[C@](C)(N)[C@H](O)[C@H](C)O2)Oc2ccc(cc2Cl)[C@H]1O [Free Vancomycin, Vancomycin]",MIC,MRSA 78,1.25 µg/mL
same,MIC,MRSA 79,1.25 µg/mL
same,MIC,MRSA 80,1.25 µg/mL
same,MIC,MRSA 81,1.25 µg/mL
same,MIC,MRSA 82,2.5 µg/mL
same,MIC,MRSA 83,1.25 µg/mL
same,MIC,MRSA strain ATCC 43300,1.25 to 2.5 µg/mL
same,MIC,MRSA strain LAC [1],1.25 to 2.5 µg/mL
same,MIC,MRSA strain NRS-35 [2],2.5 µg/mL
same,MBC,MRSA strain LAC [3],2.5 µg/mL
same,MBC,MRSA strain NRS-35 [4],2.5 to 5 µg/mL
